Source: US6683095B2, “CDK inhibitors having 3-hydroxychromen-4-one structure” (LG Life Sciences Ltd., priority 2000, dated 2004)

Tests used:
CDK2/cyclin A = molecular target: T1, CDK2/cyclin A (Homo sapiens, UniProt P24941); assay: Inhibitory activity against CDK2 (CDK2/cyclin A kinase assay, GST-Rb substrate, 32P-ATP); format: biochemical; details: 100 μM ATP, 30° C., 30 minutes
T1 construct: His; made in house; host or cells: insect cell (baculovirus co-infection)
Protocol: The inhibitory activity against CDK2 was measured by referring to Kitagawa, M. et al., Oncogene 9; 2549, 1994 and that against CDK4 was measured by referring to Carlson, B. A. et al., Cancer Research 56; 2473, 1996.
The part of amino acid positions 780 to 928 of C-terminus of human Rb protein was isolated, N-terminus thereof was labelled with GST protein, large amount thereof was expressed in bacteria and purified to be used as the substrate for the enzyme.
(§1) The activities of CDK2/cyclin A and CDK4/cyclin D1 were determined as follows. About 100 ng of enzyme was reacted in a total 100 μl of 20 mM Tris(pH 8.0), 100 mM NaCl, 10 mM MgCl2 buffer solution containing 20 μg of GST-Rb protein, 100 μM of ATP and 5 μCi of p^32-γ-ATP at 30° C. for 30 minutes. Then, EDTA was added to a concentration of 20 mM to stop the enzyme reaction. Subsequently, 30 μl of 50% glutathione bead (purchased from Pharmacia) was added to attach GST-Rb to the bead, which was washed three times with 20 mM Tris(pH 8.0), 100 mM NaCl, 10 mM EDTA solution, and then scintillation counting was carried out. To analyze the inhibitory activity of the compound, the inhibitor having a proper concentration was added to the enzyme reaction solution, and then the enzyme activity was measured according to the above method.
The inhibitory activity against CDK2 and CDK4 of the compound of formula (1) according to the present invention was represented as IC50 value (see the following Table 1).

CDK4/cyclin D1 = molecular target: T2, CDK4/cyclin D1 (Homo sapiens, UniProt P11802); assay: Inhibitory activity against CDK4 (CDK4/cyclin D1 kinase assay, GST-Rb substrate, 32P-ATP); format: biochemical; details: 100 μM ATP, 30° C., 30 minutes
T2 construct: GST; made in house; host or cells: insect cell
T2 sequence (P11802 whole entry): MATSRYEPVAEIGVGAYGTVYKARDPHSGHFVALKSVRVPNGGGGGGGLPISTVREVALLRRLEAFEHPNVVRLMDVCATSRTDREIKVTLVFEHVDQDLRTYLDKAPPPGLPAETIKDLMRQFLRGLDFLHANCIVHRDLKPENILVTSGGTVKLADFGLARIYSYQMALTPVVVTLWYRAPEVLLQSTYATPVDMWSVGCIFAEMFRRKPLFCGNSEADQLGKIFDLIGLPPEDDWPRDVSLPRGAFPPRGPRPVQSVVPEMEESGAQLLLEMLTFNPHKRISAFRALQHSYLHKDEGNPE
T2 sequence (P24385 whole entry partner): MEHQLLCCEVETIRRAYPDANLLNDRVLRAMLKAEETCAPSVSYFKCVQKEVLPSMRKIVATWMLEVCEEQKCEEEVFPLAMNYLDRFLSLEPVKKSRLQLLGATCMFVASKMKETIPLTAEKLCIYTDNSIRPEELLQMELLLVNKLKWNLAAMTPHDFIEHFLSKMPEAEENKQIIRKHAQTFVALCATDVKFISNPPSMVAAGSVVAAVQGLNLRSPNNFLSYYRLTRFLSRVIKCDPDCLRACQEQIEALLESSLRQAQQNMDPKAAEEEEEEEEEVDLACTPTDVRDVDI
Protocol: as §1

| Structure (SMILES) | IC50 (CDK2/cyclin A) [µM] | IC50 (CDK4/cyclin D1) [µM] |
| --- | --- | --- |
| Cc1cc(N)c2oc(-c3ccc(O)c(N)c3)c(O)c(=O)c2c1 [Compound 1, 8-amino-2-(3-amino-4-hydroxyphenyl)-3-hydroxy-6-methyl-4H-chromen-4-one] | 1.4 | 20 |
| Cc1cc([N+](=O)[O-])c2oc(-c3ccc(O)c([N+](=O)[O-])c3)c(O)c(=O)c2c1 [Compound 2, 2-(4-hydroxy-3-nitrophenyl)-3-hydroxy-6-methyl-8-nitro-4H-chromen-4-one] | 4.5 | 7.7 |
| CC(=O)Nc1cc(C)cc2c(=O)c(O)c(-c3ccc(O)c([N+](=O)[O-])c3)oc12 [Compound 3, N-[2-(4-hydroxy-3-nitrophenyl)-3-hydroxy-6-methyl-4-oxo-4H-chromen-8-yl]acetamide] | 6 | 3.9 |
| Cc1cc(N)c2oc(-c3ccc(O)cc3)c(O)c(=O)c2c1 [Compound 4, 8-amino-2-(4-hydroxyphenyl)-3-hydroxy-6-methyl-4H-chromen-4-one] | 2.1 | 2.1 |
| CC(=O)Nc1cc(-c2oc3ccc(C)cc3c(=O)c2O)ccc1O [Compound 6, N-[2-hydroxy-5-(3-hydroxy-6-methyl-4-oxo-4H-chromen-2-yl)phenyl]acetamide] | 30 | 10 |
| CC(=O)Nc1cc(C)cc2c(=O)c(O)c(-c3ccc(O)c(NC(C)C)c3)oc12 [Compound 7A, N-{2-[4-hydroxy-3-(isopropylamino)phenyl]-3-hydroxy-6-methyl-4-oxo-4H-chromen-8-yl}acetamide] | 18 | 47 |
| CC(=O)Nc1cc(C)cc2c(=O)c(O)c(-c3ccc(O)c(N)c3)oc12 [Compound 7B, N-[2-(3-amino-4-hydroxyphenyl)-3-hydroxy-6-methyl-4-oxo-4H-chromen-8-yl]acetamide] | 3 | 17 |
| Cc1cc(N)c2oc(-c3ccc(O)c(F)c3)c(O)c(=O)c2c1 [Compound 9, 8-amino-2-(3-fluoro-4-hydroxyphenyl)-3-hydroxy-6-methyl-4H-chromen-4-one] | 14 | 16 |
| Cc1cc(NC(N)=O)c2oc(-c3ccc(O)c(NC(N)=O)c3)c(O)c(=O)c2c1 [Compound 10, N-{5-[8-(ureido)-3-hydroxy-6-methyl-4-oxo-4H-chromen-2-yl]-2-hydroxyphenyl}urea] | 30 | 100 |
| Cc1cc(N)c2oc(-c3ccc(N)cc3)c(O)c(=O)c2c1 [Compound 11, 8-amino-2-(4-aminophenyl)-3-hydroxy-6-methyl-4H-chromen-4-one] | 150 | 50 |
| Cc1cc(N)c2oc(-c3cccc(O)c3)c(O)c(=O)c2c1 [Compound 12, 8-amino-3-hydroxy-2-(3-hydroxyphenyl)-6-methyl-4H-chromen-4-one] | 2 | 2.1 |
| Cc1ccc2oc(-c3ccc(O)c(O)c3O)c(O)c(=O)c2c1 [Compound 13, 3-hydroxy-6-methyl-2-(2,3,4-trihydroxyphenyl)-4H-chromen-4-one] | 1000 | 50 |
| Cc1ccc2oc(-c3ccc(O)c(O)c3Br)c(O)c(=O)c2c1 [Compound 14, 2-(2-bromo-3,4-dihydroxyphenyl)-3-hydroxy-6-methyl-4H-chromen-4-one] | 500 | 11 |
| Cc1cc(N2CCCS2(=O)=O)c2oc(-c3ccc(O)c(F)c3)c(O)c(=O)c2c1 [Compound 16, 2-[2-(3-fluoro-4-hydroxyphenyl)-3-hydroxy-6-methyl-4-oxo-4H-chromen-8-yl]-1λ^6-isothiazolidin-1,1-dione] | 0.45 | 1.1 |
| Cc1cc(N2CCCS2(=O)=O)c2oc(-c3ccc(O)c(Br)c3)c(O)c(=O)c2c1 [Compound 18, 2-[2-(3-bromo-4-hydroxyphenyl)-3-hydroxy-6-methyl-4-oxo-4H-chromen-8-yl]-1λ^6-isothiazolidin-1,1-dione] | 0.075 | 0.21 |
| Cc1cc(N2CCCS2(=O)=O)c2oc(-c3ccc(O)c(C#N)c3)c(O)c(=O)c2c1 [Compound 19, 5-[8-(1,1-dioxo-1λ^6-isothiazolidin-2-yl)-3-hydroxy-6-methyl-4-oxo-4H-chromen-2-yl]-2-hydroxybenzonitrile] | 1.4 | 0.79 |

| Structure (SMILES) | IC50 (CDK2/cyclin A) [µM] | IC50 (CDK4/cyclin D1) [µM] |
| --- | --- | --- |
| Cc1cc(N2CCCS2(=O)=O)c2oc(-c3ccc(O)cc3O)c(O)c(=O)c2c1 [Compound 20, 2-[2-(2,4-dihydroxyphenyl)-3-hydroxy-6-methyl-4-oxo-4H-chromen-8-yl]-1λ^6-isothiazolidin-1,1-dione] | 1000 | 500 |
| Cc1cc(N2CCCS2(=O)=O)c2oc(-c3ccc(F)c(Cl)c3)c(O)c(=O)c2c1 [Compound 21, 2-[2-(3-chloro-4-fluorophenyl)-3-hydroxy-6-methyl-4-oxo-4H-chromen-8-yl]-1λ^6-isothiazolidin-1,1-dione] | 13 | 24 |
| Cc1cc(N2CCCS2(=O)=O)c2oc(-c3ccc(O)c(C)c3)c(O)c(=O)c2c1 [Compound 22, 2-[3-hydroxy-2-(4-hydroxy-3-methylphenyl)-6-methyl-4-oxo-4H-chromen-8-yl]-1λ^6-isothiazolidin-1,1-dione] | 0.7 | 2 |
| Cc1cc(N2CCCS2(=O)=O)c2oc(-c3ccc(O)c(CO)c3)c(O)c(=O)c2c1 [Compound 23, 2-{3-hydroxy-2-[4-hydroxy-3-(hydroxymethyl)phenyl]-6-methyl-4-oxo-4H-chromen-8-yl}-1λ^6-isothiazolidin-1,1-dione] | 1.5 | 5 |
| Cc1cc(N2CCCS2(=O)=O)c2oc(-c3ccc(O)c(C(F)(F)F)c3)c(O)c(=O)c2c1 [Compound 24, 2-[3-hydroxy-2-(4-hydroxy-3-trifluoromethylphenyl)-6-methyl-4-oxo-4H-chromen-8-yl]-1λ^6-isothiazolidin-1,1-dione] | 0.25 | 2.1 |
| Nc1cc(N2CCCS2(=O)=O)c2oc(-c3ccc(O)cc3)c(O)c(=O)c2c1 [Compound 25, 2-[6-amino-3-hydroxy-2-(4-hydroxyphenyl)-4-oxo-4H-chromen-8-yl]-1λ^6-isothiazolidin-1,1-dione] | 0.088 | 1.2 |
| CN(C)c1cc(N2CCCS2(=O)=O)c2oc(-c3ccc(O)cc3)c(O)c(=O)c2c1 [Compound 26, 2-[6-(dimethylamino)-3-hydroxy-2-(4-hydroxyphenyl)-4-oxo-4H-chromen-8-y]-1λ^6-isothiazolidin-1,1-dione] | 0.22 | 0.71 |
| CCN(CC)c1cc(N2CCCS2(=O)=O)c2oc(-c3ccc(O)cc3)c(O)c(=O)c2c1 [Compound 27, 2-[6-(diethylamino)-3-hydroxy-2-(4-hydroxyphenyl)-4-oxo-4H-chromen-8-yl]-1λ^6-isothiazolidin-1,1-dione] | 9 | 7.1 |
| O=c1c(O)c(-c2ccc(O)cc2)oc2c(N3CCCS3(=O)=O)cc(NCc3ccccc3)cc12 [Compound 28, 2-[6-(benzylamino)-3-hydroxy-2-(4-hydroxyphenyl)-4-oxo-4H-chromen-8-yl]-1λ^6-isothiazolidin-1,1-dione] | 2.24 | 3.2 |
| O=c1c(O)c(-c2ccc(O)cc2)oc2c(N3CCCS3(=O)=O)cc(NC3CCNCC3)cc12 [Compound 29, 2-[3-hydroxy-2-(4-hydroxyphenyl)-4-oxo-6-(4-piperidinylamino)-4H-chromen-8-yl]-1λ^6-isothiazolidin-1,1-dione] | 1.8 | 1.7 |
| O=c1c(O)c(-c2ccc(O)cc2)oc2c(N3CCCS3(=O)=O)cc(NC3CCCCC3)cc12 [Compound 30, 2-[6-(cyclohexylamino)-3-hydroxy-2-(4-hydroxyphenyl)-4-oxo-4H-chromen-8-yl]-1λ^6-isothiazolidin-1,1-dione] | 5.6 | 1.6 |
| O=c1c(O)c(-c2ccc(O)cc2)oc2c(N3CCCS3(=O)=O)cc(Nc3ccccc3)cc12 [Compound 31, 2-[6-anilino-3-hydroxy-2-(4-hydroxyphenyl)-4-oxo-4H-chromen-8-yl]-1λ^6-isothiazolidin-1,1-dione] | 1.4 | 3 |
| CNc1cc(N2CCCS2(=O)=O)c2oc(-c3ccc(O)cc3)c(O)c(=O)c2c1 [Compound 32, 2-[3-hydroxy-2-(4-hydroxyphenyl)-6-(methylamino)-4-oxo-4H-chromen-8-yl]-1λ^6-isothiazolidin-1,1-dione] | 0.224 | 0.54 |
| CN(CCO)c1cc(N2CCCS2(=O)=O)c2oc(-c3ccc(O)cc3)c(O)c(=O)c2c1 [Compound 33, 2-{3-hydroxy-6-[(2-hydroxyethyl)(methyl)amino]-2-(4-hydroxyphenyl)-4-oxo-4H-chromen-8-yl}-1λ^6-isothiazolidin-1,1-dione] | 0.6 | 0.9 |
| CC(=O)Nc1cc(N2CCCS2(=O)=O)c2oc(-c3ccc(O)c(Cl)c3)c(O)c(=O)c2c1 [Compound 34, N-[2-(3-chloro-4-hydroxyphenyl)-8-(1,1dioxo-1λ^6-isothiazolidin-2-yl)-3-hydroxy-4-oxo-4H-chromen-6-yl]acetamide] | 1.3 | 1.8 |
